Our source for the GI50 values is ChEMBL document CHEMBL1833849, “Novel 4-azasteroidal N-glycoside analogues bearing sugar-like D ring: synthesis and anticancer activities” (2011).

Common to all, as to format: functional
One assay concerns HeLa. Kind of assay: Cytotoxicity against human HeLa cells assessed as growth inhibition after 3 days by MTT assay. The following applies: 72 h.
For the next assay, the system named is PC-3. As to the kind of experiment: Cytotoxicity against human PC3 cells assessed as growth inhibition after 3 days by MTT assay. To be noted: PC-3, 72 h.
The subject of another assay is MCF7. Kind of assay: Cytotoxicity against human MCF7 cells assessed as growth inhibition after 3 days by MTT assay. To be noted: MCF7, 72 h.
The subject of another assay is SK-N-SH. As to the kind of experiment: Cytotoxicity against human SK-N-SH cells assessed as growth inhibition after 3 days by MTT assay. The following applies: 72 h.

Regarding `C[C@]12CCC(=O)N[C@@H]1CC[C@@H]1[C@@H]2CC[C@]2(C)O[C@H](n3cnc4c(Cl)nc(Cl)nc43)CC[C@@H]12`, the GI50 in the assay with HeLa worked out at 7.57 µM; with PC-3, 11.2 µM; in the assay with MCF7, 34.2 µM; in the assay on SK-N-SH it was 34.2 µM.

On to `C[C@]12CCC(=O)N[C@@H]1CC[C@@H]1[C@@H]2CC[C@]2(C)O[C@H](n3cnc4c(Cl)nc(F)nc43)CC[C@@H]12`, for which the GI50 in the assay with HeLa was determined as 13.3 µM; in the assay on PC-3, 3.76 µM; with MCF7, 16.7 µM; with SK-N-SH, 10.7 µM.

Take `C[C@]12CCC(=O)N[C@@H]1CC[C@@H]1[C@@H]2CC[C@]2(C)O[C@H](n3cnc4c(NCc5ccccc5)ncnc43)CC[C@@H]12`: the GI50 in the assay on HeLa stood at 129 µM; with PC-3, 20.6 µM; in the assay on MCF7 it was 136 µM; in the assay on SK-N-SH, 133 µM.

As to `CC(=O)O[C@H]1C(=O)[C@@]2(C)[C@H]([C@H](OC(=O)c3ccccc3)[C@]3(O)C[C@H](OC(=O)[C@H](O)[C@@H](NC(=O)c4ccccc4)c4ccccc4)C(C)=C1C3(C)C)[C@]1(OC(C)=O)CO[C@@H]1C[C@@H]2O` [PACLITAXEL], the GI50 with HeLa was found to be 2.82 µM; with PC-3, 1.46 µM; in the assay on MCF7, 1.07 µM; in the assay on SK-N-SH, 2.19 µM.

`C[C@]12CCC(=O)N[C@@H]1CC[C@@H]1[C@@H]2CC[C@]2(C)O[C@H](n3cnc4c(Cl)ncnc43)CC[C@@H]12`: the GI50 was determined as 17.7 µM in the assay on HeLa, 3.25 µM in the assay with PC-3, 20.9 µM in the assay on MCF7 and 103 µM in the assay on SK-N-SH.
